According to patent US20230321017A1, “ACIDIC CANNABINOIDS AND USES THEREOF FOR ENHANCING FEMALE SEXUAL FUNCTION OR TREATING FEMALE SEXUAL DISORDERS” (Vella Bioscience, Inc., priority 2022, published 2023):
“Also recorded” adds a separate entry of the source.

Legend:
[1] = tested on: rat proximal vaginal smooth muscle tissue; assay: In vitro isometric tension, isolated organ bath: relaxation of EFS-induced contractions of proximal vagina strips; conditions: for relaxation of EFS-induced contractions of proximal vagina strips compared to the vehicle control: 10 min incubation, two-way ANOVA; for pharmacological relaxant effect on rat proximal vaginal smooth muscle tissue (dose dependence): figure legend, 1, 10 and 100 µg/mL
Source text: (§1) The following in vitro methodology was utilized to examine the concentration-dependent response of rat vaginal tissue, both proximal and distal, to CBDA and CBD following contraction by electrical field stimulation (similar to efferent neurostimulation in vivo).
(§2) Intact female Sprague-Dawley rats were anesthetized and vagina harvested. A maximum of eight vaginal strips (4 proximal and 4 distal) were obtained from each rat in circular direction and mounted in organ chambers filled with an oxygenated physiological salt solution.
(§3) Strips were excised from the tissue samples and connected to force transducers for isometric tension recording. Organ baths were filled with Krebs buffer maintained at 37° C. and bubbled with 95% O2 and 5% CO2, pH 7.4.
(§4) After the equilibration period, the strips were primed first by the addition to the organ bath of KCI (100 mM, 10 min) and then after a washing step, by stimulation to EFS (electrical parameters: 20 Hz, 3 ms, 10 s, 300 mA). After this priming period, the strips were washed and a baseline frequency response curve (FRC) was obtained (3 ms, 10 s, 300 mA, frequency at 1, 2, 4, 8, 16, 32, and 48 Hz, every 2 minutes). Then, 6 strips (3 proximal and 3 distal) were incubated with vehicle for 10 minutes before applying a second FRC. The remaining 2 strips (one proximal and one distal) served as a time-controls. After a washing step, a third FRC was applied after the incubation of the test compound at 1 µg/mL for a period of 10 min. This was repeated with the concentration of 10 µg/mL, and 100 µg/mL.
(§5) The experiments were performed following the general procedures described in Examples 1 and 2. The data are mean ± SEM of N experiments using vaginal strips from N different rats. p = ns, * p < 0.05, ** p < 0.01, *** p < 0.001, **** p < 0.0001, two-way ANOVA.
(§6) The experiments were performed following the general procedures described in Examples 1 and 2. The data are mean ± SEM of N experiments using vaginal strips from N different rats; p = ns, * p < 0.05, ** p < 0.01, *** p < 0.001, **** p < 0.0001, two-way ANOVA.
(§7) The comparison plots of the pharmacological relaxant effects of CBD and CBDA on rat vaginal smooth muscle tissue are shown in FIGS. 3, 4, and 5. Also, shown are the results of the evaluation of the differences in effects exerted by CBD and CBDA for statistical significance. The data are mean ± SEM of N experiments using vaginal strips from N different rats; p = ns, * p < 0.05, ** p < 0.01, *** p < 0.001, **** p < 0.0001, two-way ANOVA.

[2] = tested on: rat distal vaginal smooth muscle tissue; assay: In vitro isometric tension, isolated organ bath: relaxation of EFS-induced contractions of distal vagina strips; conditions: for relaxation of EFS-induced contractions of distal vagina strips compared to the vehicle control: 10 min incubation, two-way ANOVA; for pharmacological relaxant effect on rat distal vaginal smooth muscle tissue (dose dependence): figure legend, 1, 10 and 100 µg/mL
Source text: as §1, §2, §3, §4, §5, §6, §7

cyclooxygenase isoforms = conditions: background statement, selectivity controversial; cited from earlier work
vaginal smooth muscle = conditions: earlier study WO2021091908A1; cited from earlier work
[3] = tested on: rat vaginal smooth muscle; assay: Relaxation of precontracted rat vaginal smooth muscle (summary statement); conditions: dose-dependent manner; tissue region not specified
Source text: as §1, §2, §3
as §4, with “After a washing step, a third FRC was applied after the incubation of the test compound at 1 µg/mL for a period of 10 min. This was repeated with the concentration of 10 µg/mL, and 100 µg/mL.” left out

[4] = pKa estimate by comparison to olivetolic acid; assay type: physicochemical; conditions: estimated by comparison to olivetolic acid; not reported
[5] = background statement; cited from earlier work

Row | Structure (SMILES) | relaxation of EFS-induced contractions of proximal vagina strips compared to the vehicle control ([1]; 10 µg/mL) | relaxation of EFS-induced contractions of proximal vagina strips compared to the vehicle control ([1]; 100 µg/mL) | pharmacological relaxant effect on rat proximal vaginal smooth muscle tissue (dose dependence) [1] | relaxation of EFS-induced contractions of distal vagina strips compared to the vehicle control ([2]; 1 µg/mL) | relaxation of EFS-induced contractions of distal vagina strips compared to the vehicle control ([2]; 10 µg/mL) | relaxation of EFS-induced contractions of distal vagina strips compared to the vehicle control ([2]; 100 µg/mL) | pharmacological relaxant effect on rat distal vaginal smooth muscle tissue (dose dependence) [2] | activity against cyclooxygenase (COX-1/COX-2) (cyclooxygenase isoforms) | relaxation of vaginal smooth muscle (vaginal smooth muscle) | pharmacological relaxant effect of CBDA compared with CBD, proximal vaginal smooth muscle ([1]; 1 µg/mL, FIG. 3A) | pharmacological relaxant effect of CBDA compared with CBD, proximal vaginal smooth muscle ([1]; 10 µg/mL, FIG. 4A) | pharmacological relaxant effect of CBDA compared with CBD, proximal vaginal smooth muscle ([1]; 100 µg/mL, FIG. 5A) | pharmacological relaxant effect of CBDA compared with CBD, distal vaginal smooth muscle ([2]; 1 µg/mL, FIG. 3B) | pharmacological relaxant effect of CBDA compared with CBD, distal vaginal smooth muscle ([2]; 10 µg/mL, FIG. 4B) | pharmacological relaxant effect of CBDA compared with CBD, distal vaginal smooth muscle ([2]; 100 µg/mL, FIG. 5B) | effectiveness at relaxing a precontracted rat vaginal smooth muscle, relative to CBD [3] | pKa [4] | permeability relative to CBD [5]
1 | C=C(C)[C@@H]1CCC(C)=C[C@H]1c1c(O)cc(CCCCC)cc1O [CBD, (-)-trans-cannabidiol, reference compound] | statistically-significant relaxation | statistically-significant relaxation | statistically significant, dose-dependent pharmacological relaxant effect | statistically-significant relaxation; also recorded: statistically significant relaxation | statistically-significant relaxation; also recorded: statistically significant relaxation | statistically-significant relaxation; also recorded: statistically significant relaxation | statistically significant, dose-dependent pharmacological relaxant effect | much weaker or no activity | statistically-significant relaxation | – | – | – | – | – | – | – | – | –
2 | C=C(C)[C@@H]1CCC(C)=C[C@H]1c1c(O)cc(CCCCC)c(C(=O)O)c1O [CBDA, (1′R,2′R)-2,6-dihydroxy-5′-methyl-4-pentyl-2′-(prop-1-en-2-yl)-1′,2′,3′,4′-tetrahydro[1,1′-biphenyl]-3-carboxylic acid] | – | – | statistically significant, dose-dependent pharmacological relaxant effect | – | statistically-significant relaxation | statistically-significant relaxation | statistically significant, dose-dependent pharmacological relaxant effect | inhibitor of cyclooxygenase isoforms | – | stronger | stronger | stronger | no statistically significant difference | stronger | stronger | significantly more effective than CBD | ~3.4 | substantially higher
